Reference: patent EP0183174A2, “Substituted phenoxy urea, processes for its preparation and herbicide containing it as active ingredient” (KUMIAI CHEMICAL INDUSTRY CO., LTD., priority 1984, dated 1986)

How the values were obtained:
Parameters in all cases: key: 5: Withered; 4.5: Herbicidal effect (or phytotoxicity) in a range of 90 to 99%; 4: Herbicidal effect (or phytotoxicity) in a range of 80 to 89%; 3.5: Herbicidal effect (or phytotoxicity) in a range of 70 to 79%; 3: Herbicidal effect (or phytotoxicity) in a range of 60 to 69%; 2.5: Herbicidal effect (or phytotoxicity) in a range of 50 to 59%; 2: Herbicidal effect (or phytotoxicity) in a range of 40 to 49%; 1.5: Herbicidal effect (or phytotoxicity) in a range of 30 to 39%; 1: Herbicidal effect (or phytotoxicity) in a range of 20 to 29%; 0.5: Herbicidal effect (or phytotoxicity) in a range of 1 to 19%; 0: No herbicidal effect (or no phytotoxicity)
crabgrass = assay: Test Example 4: herbicidal test by upland foliage treatment; format: in vivo, Digitaria sanquinalis L.
Experimental: (§1) Into each plastic pot of 120 cm^2, upland soil was filled, then seeds of barnyardgrass, crabgrass, redroot pigweed and rice flatsedge were sown, and they were grown in a greenhouse until barnyardgrass. reached 3-leaf stage. Each wettable powder prepared from the test compound in accordance with Formulation Example 3 was diluted with water to give the amount of the active ingredient corresponding to 4 kg/hectare, and the diluted solution was uniformly sprayed at an application rate of 1000 liter/hectare from the top of plants by means of a small size spray, when barnyardgrass was in the 3-leaf stage. They were grown in a greenhouse, and twenty days after the application, the herbicidal effects were evaluated in accordance with the standards as identified in Table 5.

[1] = system: barnyardgrass (Echinochloa crus-galli L.); assay: Test Example 1: herbicidal test by water treatment in a paddy field; format: in vivo; settings: evaluated thirty days after application
Experimental: (§2) Into each porcelain pot having a diameter of 10 cm, paddy soil was filled and puddled, and seeds of barnyardgrass (Echinochloa crus-galli L.), smallflower flatsedge, monochoria and Japanese bulrush were sown, and water was filled in a-depth of 3 cm. One day later, a predetermined amount of the wettable powder prepared in Formulation Example 3 and diluted with water was dropwise applied to the surface of the water (dose of the active ingredient: 4 kg/hectare). Thereafter, they were grown in a green house. Thirty days after the application, the herbicidal effects were evaluated in accordance with the standards as identified in Table 5.

Japanese bulrush = assay: as above; format: in vivo, Scir^pus juncoides Roxb.; settings: evaluated thirty days after application
Experimental: as §2

barnyardgrass = assay: Test Example 4: herbicidal test by upland foliage treatment; format: in vivo, Echinochloa crus-galli L.
Experimental: as §1

smallflower flatsedge = assay: Test Example 1: herbicidal test by water treatment in a paddy field; format: in vivo, Cvperus diffcrmis L.; settings: evaluated thirty days after application
Experimental: as §2

[2] = active ingredient 4 kg/hectare, foliage spray 1000 liter/hectare at 3-leaf stage of barnyardgrass, twenty days after application
[3] = water treatment in paddy field pot, dose of active ingredient 4 kg/hectare
[4] = upland foliage treatment, 4 kg/hectare active ingredient, sprayed at 1000 liter/hectare at barnyardgrass 3-leaf stage, evaluated twenty days after application
[5] = dose of the active ingredient 4 kg/hectare, wettable powder applied to water surface one day after sowing

Compound	Herbicidal effects Crabgrass (crabgrass; [2])	Herbicidal effects Barnyard grass [1, 3]	Herbicidal effects Japanese bulrush (Japanese bulrush; [3])	Herbicidal effects Barnyard-grass (barnyardgrass; [2])	Herbicidal effects Small flower flatsedge (smallflower flatsedge; [3])	Herbicidal effects Crabgrass (crabgrass; [4])	Herbicidal effects Barnyard-grass (barnyardgrass; [4])	Herbicidal effects Barnyard grass [1, 5]	Herbicidal effects Japanese bulrush (Japanese bulrush; [5])	Herbicidal effects Small flower flatsedge (smallflower flatsedge; [5])
CC(C)N(C)C(=O)NOc1cc(Cl)cc(Cl)c1 [Compound No. 186, 3-(3,5-Dichlorophenoxy)-1-isopropyl-1-methyl urea trichloroacetate]	5	5	5	5	5	–	–	–	–	–
COCCNC(=O)NOc1cc(Cl)ccc1Cl [Compound No. 243]	–	5	5	–	5	4 (Herbicidal effect (or phytotoxicity) in a range of 80 to 89%)	5	–	–	–
CN(C)C(=O)NOc1cc(Cl)ccc1Cl [Compound No. 1, 3-(2,5-Dichlorophenoxy)-1,1-dimethyl urea]	4 (Herbicidal effect (or phytotoxicity) in a range of 80 to 89%)	–	–	4 (Herbicidal effect (or phytotoxicity) in a range of 80 to 89%)	–	–	–	5	5	5
CON(C)C(=O)NOc1cc(Cl)ccc1Cl [Compound No. 242, 3-(2,5-Dichlorophenoxy)-1-methoxy-1-methyl urea]	–	5	5	–	5	5	4 (Herbicidal effect (or phytotoxicity) in a range of 80 to 89%)	–	–	–
